Values quoted from earlier work, collected in patent publication US20040258731A1, “Preparation approriate for cartilage tissue formation” (priority 2001, published 2004).

Assays:
[1] = test system: articular cartilage
[2] = test system: articular cartilage; details: experimental arthritis model animals, intraarticular administration

In the case of “TGF-β1: an isoform of TGF-β (Transforming Growth Factor β)”, the chondrogenesis ([1]; intraarticularly administered) is listed as “promote chondrogenesis” and the “arthritis-induced loss of proteoglycans in articular cartilage” value [2] is listed as “suppresses arthritis-induced loss of proteoglycans in articular cartilage”.
For TGF-β, the synovitis ([1]; in vivo) is given as “marked synovitis”.
